Like-named read-outs stand apart in the source and are kept apart here.
Columns and labels:
Type in all cases: in vivo
[1] = test system: Beet Armyworm (Spodoptera exigua, LAPHEG); test: Bioassays on Beet Armyworm (BAW), 128-well diet tray assay; details: Spodoptera exigua
How it was run: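 Test molecule was dissolved in 90:10 acetone-water and applied at 50 μg/cm^2 onto artificial diet in eight wells, then dried. Second instar larvae, one to five per well, were added, and trays were kept vented at 25° C. with a 14:10 photoperiod for five to seven days before mortality was recorded.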

[2] = test system: Cabbage Looper (Trichoplusia ni, TRIPNI); test: Bioassays on Cabbage Looper (CL), 128-well diet tray assay; details: Trichoplusia ni
How it was run: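 Percent mortality, averaged across eight replicate wells, after second-instar larvae (1–5 per well) fed for five to seven days on diet dosed at 50 μg/cm^2. Compound was applied in acetone-water 90:10 and dried; trays kept vented at 25° C under 14:10 photoperiod.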

[3] = test system: Green Peach Aphid (Myzus persicae, MYZUPE); test: Bioassays on Green Peach Aphid (GPA), foliar spray on cabbage seedlings; details: 72 h
Protocol: Certain molecules disclosed in this document were tested against GPA using procedures described in the following example. In the reporting of the results, the “GPA & YFM Rating Table” was used (See Table Section).
Cabbage seedlings grown in 3-inch pots, with 2-3 small (3-5 cm) true leaves, were used as test substrate. The seedlings were infested with 20-50 GPA (wingless adult and nymph stages) one day prior to chemical application. Four pots with individual seedlings were used for each treatment. Test molecules (2 mg) were dissolved in 2 mL of acetone/methanol (1:1) solvent, forming stock solutions of 1000 ppm test molecule. The stock solutions were diluted 5× with 0.025% Tween 20 in water to obtain the solution at 200 ppm test molecule. A hand-held aspirator-type sprayer was used for spraying a solution to both sides of […] leaves until runoff. Reference plants (solvent check) were sprayed with the diluent only containing 20% by volume of acetone/methanol (1:1) solvent. Treated plants were held in a holding room for three days at approximately 25° C. and ambient relative humidity (RH) prior to grading. Evaluation was conducted by counting the number of live aphids per plant under a microscope. Percent control was measured using Abbott's correction formula (W. S. Abbott, “A Method of Computing the Effectiveness of an Insecticide” J. Econ. Entomol. 18 (1925), pp. 265-267) as follows. Corrected % Control=100*(X−Y)/X where X=No. of live aphids on solvent check plants and Y=No. of live aphids on treated plants. The results are indicated in the table entitled “Table ABC: Biological Results” (See Table Section).

[4] = test system: Yellow Fever Mosquito (Aedes aegypti, AEDSAE); details: for YFM rating: Table ABC / ABC-DP rating
How it was run: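 Rating-scale grades reflect larval mortality scored per well after 3 days at room temperature under non-evaporative lids. Larvae (~1 day old, hatched overnight in liver-powder water) were added to six daughter plates per compound, prepared from a 4000 ppm DMSO stock diluted in 90:10 water/acetone.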

[5] = Table ABC: Biological Results, species BAW, read-out: BAW
[6] = Table ABC: Biological Results, species CL, read-out: CL
[7] = Table ABC: Biological Results, species GPA, read-out: GPA
[8] = Table ABC: Biological Results, species YFM
[9] = Beet Armyworm, rating class, read-out: BAW
[10] = Cabbage Looper, rating class, read-out: CL
[11] = Green Peach Aphid, rating class, read-out: GPA
[12] = Yellow Fever Mosquito, rating class
[13] = Beet Armyworm, Table ABC / ABC-DP rating, read-out: BAW rating
[14] = Cabbage Looper, Table ABC / ABC-DP rating, read-out: CL rating
[15] = Green Peach Aphid, Table ABC / ABC-DP rating, read-out: GPA rating

Row | Structure (SMILES) | pest or weed control at 50 µg/cm2 [1, 13] | pest or weed control at 50 µg/cm2 [2, 14] | pest or weed control at 200 µg/mL [3, 15] | YFM rating ([4]; Yellow Fever Mosquito) | also measured
1 | Cc1c(NC(=O)c2cc(NC(=O)[C@H]3[C@H](c4cc(Cl)cc(Cl)c4)C3(Cl)Cl)ccc2Cl)ccc([N+](=O)[O-])c1C (relative stereo) [F1180, trans-2-chloro-5-(2,2-dichloro-3-(3,5-dichlorophenyl)cyclopropane-1-carboxamido)-N-(2,3-dimethyl-4-nitrophenyl)benzamide] | – | – | – | – | pest or weed control at 50 µg/cm2 [1, 5]: 50 to 100%; pest or weed control at 50 µg/cm2 [2, 6]: 50 to 100%; pest or weed control at 200 µg/mL [3, 7]: 0 to 80%; YFM [4, 8]: A (80–100)
2 | Cc1cc(NC(=O)[C@H]2[C@H](c3ccc(F)c(Cl)c3)C2(Cl)Cl)cc(C(=O)Nc2ccc(F)cc2F)c1Cl (relative stereo) [F1185, trans-2-Chloro-5-(2,2-dichloro-3-(3-chloro-4-fluorophenyl)cyclopropane-1-carboxamido)-N-(2,4-difluorophenyl)-3-methylbenzamide] | – | – | – | – | pest or weed control at 50 µg/cm2 [1, 5]: 50 to 100%; pest or weed control at 50 µg/cm2 [2, 6]: 50 to 100%; pest or weed control at 200 µg/mL [3, 7]: 80 to 100%; YFM [4, 8]: A (80–100)
3 | Nc1c(F)ccc(NC(=O)c2cc(NC(=O)[C@H]3[C@H](c4ccc(Cl)cc4)C3(Cl)Cl)ccc2Cl)c1F (relative stereo) [F1593, trans-N-(3-Amino-2,4-difluorophenyl)-2-chloro-5-(2,2-dichloro-3-(4-chlorophenyl)cyclopropane-1-carboxamido)benzamide] | – | – | – | – | pest or weed control at 50 µg/cm2 [1, 9]: 50 to 100%; pest or weed control at 50 µg/cm2 [2, 10]: 50 to 100%; pest or weed control at 200 µg/mL [3, 11]: 80 to 100%; YFM [4, 12]: A (80–100)
4 | O=C(Nc1ccc(F)c(NC(=O)C(F)F)c1F)c1cc(NC(=O)[C@H]2[C@H](c3ccc(F)cc3)C2(Cl)Cl)ccc1Cl (relative stereo) [F1598, trans-2-Chloro-5-(2,2-dichloro-3-(4-fluorophenyl)cyclopropane-1-carboxamido)-N-(3-(2,2-difluoroacetamido)-2,4-difluorophenyl)benzamide] | – | – | – | – | pest or weed control at 50 µg/cm2 [1, 9]: 50 to 100%; pest or weed control at 50 µg/cm2 [2, 10]: 50 to 100%; pest or weed control at 200 µg/mL [3, 11]: 80 to 100%; YFM [4, 12]: A (80–100)
5 | CC(=O)Nc1ccc(F)c(NC(=O)c2cc(NC(=O)[C@H]3[C@H](c4cc(Cl)cc(Cl)c4)C3(Cl)Cl)ccc2Cl)c1 (relative stereo) [F1635, trans-N-(5-Acetamido-2-fluorophenyl)-2-chloro-5-(2,2-dichloro-3-(3,5-dichlorophenyl)cyclopropane-1-carboxamido)benzamide] | – | – | – | – | pest or weed control at 50 µg/cm2 [1, 9]: 50 to 100%; pest or weed control at 50 µg/cm2 [2, 10]: 50 to 100%; pest or weed control at 200 µg/mL [3, 11]: 0 to 80%; YFM [4, 12]: A (80–100)
6 | CC(=O)Nc1cccc(F)c1NC(=O)c1cc(NC(=O)[C@H]2[C@H](c3cc(Cl)cc(Cl)c3)C2(Cl)Cl)ccc1Cl (relative stereo) [F1636, trans-N-(2-Acetamido-6-fluorophenyl)-2-chloro-5-(2,2-dichloro-3-(3,5-dichlorophenyl)cyclopropane-1-carboxamido)benzamide] | – | – | – | – | pest or weed control at 50 µg/cm2 [1, 9]: 50 to 100%; pest or weed control at 50 µg/cm2 [2, 10]: 50 to 100%; pest or weed control at 200 µg/mL [3, 11]: 0 to 80%; YFM [4, 12]: A (80–100)
7 | O=C(NCC(F)(F)F)c1cc(NC(=O)[C@H]2[C@H](c3ccc(F)c(Cl)c3F)C2(Cl)Cl)ccc1Cl (relative stereo) [F2011, trans-2-Chloro-5-(2,2-dichloro-3-(3-chloro-2,4-difluorophenyl)cyclopropane-1-carboxamido)-N-(2,2,2-trifluoroethyl)benzamide] | 50 to 100% | 50 to 100% | 0 to 80% | A (80–100) | –
8 | CCNC(=O)c1c(F)ccc(NC(=O)[C@H]2[C@H](c3ccc(F)c(Cl)c3)C2(Cl)Cl)c1F (relative stereo) [F2016, trans-3-(2,2-Dichloro-3-(3-chloro-4-fluorophenyl)cyclopropane-1-carboxamido)-N-ethyl-2,6-difluorobenzamide] | 50 to 100% | 50 to 100% | 80 to 100% | A (80–100) | –
9 | O=C(NCC(F)(F)F)c1c(F)ccc(NC(=O)[C@H]2[C@H](c3ccc(F)c(Cl)c3)C2(Cl)Cl)c1F (relative stereo) [F2017, trans-3-(2,2-Dichloro-3-(3-chloro-4-fluorophenyl)cyclopropane-1-carboxamido)-2,6-difluoro-N-(2,2,2-trifluoroethyl)benzamide] | 50 to 100% | 50 to 100% | 80 to 100% | A (80–100) | –
10 | O=C(NCC(F)(F)F)c1c(Cl)ccc(NC(=O)[C@H]2[C@H](c3ccc(F)c(Cl)c3)C2(Cl)Cl)c1Cl (relative stereo) [F2020, trans-2,6-Dichloro-3-(2,2-dichloro-3-(3-chloro-4-fluorophenyl)cyclopropane-1-carboxamido)-N-(2,2,2-trifluoroethyl)benzamide] | 50 to 100% | 50 to 100% | 0 to 80% | A (80–100) | –
11 | CCCNC(=O)c1c(F)ccc(NC(=O)[C@H]2[C@H](c3ccc(F)c(Cl)c3)C2(Cl)Cl)c1F (relative stereo) [F2021, trans-3-(2,2-Dichloro-3-(3-chloro-4-fluorophenyl)cyclopropane-1-carboxamido)-2,6-difluoro-N-propylbenzamide] | 50 to 100% | 50 to 100% | 80 to 100% | A (80–100) | –
12 | O=C(NCCF)c1c(Cl)ccc(NC(=O)[C@H]2[C@H](c3ccc(F)c(Cl)c3)C2(Cl)Cl)c1Cl (relative stereo) [F2025, trans-2,6-Dichloro-3-(2,2-dichloro-3-(3-chloro-4-fluorophenyl)cyclopropane-1-carboxamido)-N-(2-fluoroethyl)benzamide] | 50 to 100% | 50 to 100% | 0 to 80% | A (80–100) | –
13 | O=C(NCCCCl)c1c(Cl)ccc(NC(=O)[C@H]2[C@H](c3ccc(F)c(Cl)c3)C2(Cl)Cl)c1Cl (relative stereo) [F2026, trans-2,6-Dichloro-N-(3-chloropropyl)-3-(2,2-dichloro-3-(3-chloro-4-fluorophenyl)cyclopropane-1-carboxamido)benzamide] | 50 to 100% | 50 to 100% | 0 to 80% | A (80–100) | –
14 | O=C(NCCF)c1c(F)ccc(NC(=O)[C@H]2[C@H](c3ccc(F)c(Cl)c3)C2(Cl)Cl)c1F (relative stereo) [F2027, trans-3-(2,2-Dichloro-3-(3-chloro-4-fluorophenyl)cyclopropane-1-carboxamido)-2,6-difluoro-N-(2-fluoroethyl)benzamide] | 50 to 100% | 50 to 100% | 80 to 100% | A (80–100) | –
15 | Cc1cc(NC(=O)[C@H]2[C@H](c3ccc(F)c(Cl)c3)C2(Cl)Cl)cc(C(=O)NCC(F)(F)C(F)(F)F)c1Cl (relative stereo) [F2039, trans-2-Chloro-5-(2,2-dichloro-3-(3-chloro-4-fluorophenyl)cyclopropane-1-carboxamido)-3-methyl-N-(2,2,3,3,3-pentafluoropropyl)benzamide] | 50 to 100% | 50 to 100% | 80 to 100% | A (80–100) | –
16 | Cc1cc(NC(=O)[C@H]2[C@H](c3ccc(F)c(Cl)c3)C2(Cl)Cl)cc(C(=O)NCCCCl)c1Cl (relative stereo) [F2040, trans-2-Chloro-N-(3-chloropropyl)-5-(2,2-dichloro-3-(3-chloro-4-fluorophenyl)cyclopropane-1-carboxamido)-3-methylbenzamide] | 50 to 100% | 50 to 100% | 0 to 80% | A (80–100) | –

From patent publication US20250228239A1, “MOLECULES HAVING PESTICIDAL UTILITY, AND INTERMEDIATES, COMPOSITIONS, AND PROCESSES, RELATED THERETO” (priority 2024, published 2025)
